Laboratory results reported in the supplement of paper PMC10627819.
Values after ≈ are worked out from the molar mass of the structure shown.

Experiments:
S. aureus DSM 20231 [1] = test system: S. aureus DSM 20231
S. aureus Newman [2] = test system: S. aureus Newman
S. pneumoniae D39V [3] = test system: S. pneumoniae D39V
S. aureus DSM 20231 [4] = assay: fitness (endpoint OD595 vs no drug) (fraction); higher = more growth
In short: (§1)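 Background-subtracted growth curves were the basis for fitness, taken as the optical density at entry into stationary phase over the robust mean of no-drug control wells. A cap of 1 was applied. The curves came from OD595 readings every 30 min for 14 h at 37 °C, in 384-well plates seeded at OD595 0.01 with 30 µl, or 55 µl for S. pneumoniae.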

B. subtilis 168 [5] = assay: as above
In short: as §1

S. aureus Newman [6] = assay: as above
In short: as §1

S. pneumoniae D39V [7] = assay: as above
In short: as §1

S. aureus DSM 20231 [8] = assay: Bliss interaction score (quartile over a dose matrix) (fitness difference); higher = more antagonism (negative = synergy)
In short: (§2)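 The Bliss score is observed minus expected fitness, where expected fitness is the product of the single-drug fitness values inferred from the combination data. Fitness is the OD595 at the onset of stationary phase over the plate's robust no-drug mean, capped at 1. Scores are summarised by quartiles over technical, biological and donor/recipient replicates.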

B. subtilis 168 [9] = assay: as above
In short: as §2

S. aureus Newman [10] = assay: as above
In short: as §2

S. pneumoniae D39V [11] = assay: as above
In short: as §2
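Throughout, for Bliss interaction score (quartile over a dose matrix): first quartile when negative (synergy) and third quartile when positive (antagonism).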

CO/N=C(\C(=O)N[C@@H]1C(=O)N2C(C(=O)O)=C(COC(C)=O)CS[C@H]12)c1csc(N)n1 [Cefotaxime]
Settings	MIC [µg/mL]
S. aureus DSM 20231 [1]	0.173 (≈ 0.38 µM)
S. aureus Newman [2]	2.5 (≈ 5.49 µM)
S. pneumoniae D39V [3]	0.008 (≈ 0.0176 µM)

Settings	fitness
B. subtilis 168 [5], 0.0625 µg/mL	0.477
B. subtilis 168 [5], 0.125 µg/mL	0.338
B. subtilis 168 [5], 0.25 µg/mL	0.205
B. subtilis 168 [5], 0.5 µg/mL	0.113
B. subtilis 168 [5], 1 µg/mL	0.0654
B. subtilis 168 [5], 2 µg/mL	0.0508
S. aureus DSM 20231 [4], 0.039 µg/mL	0.935
S. aureus DSM 20231 [4], 0.078 µg/mL	0.869
S. aureus DSM 20231 [4], 0.155 µg/mL	0.951
S. aureus DSM 20231 [4], 0.156 µg/mL	0.844
S. aureus DSM 20231 [4], 0.31 µg/mL	0.825
S. aureus DSM 20231 [4], 0.312 µg/mL	0.676
S. aureus DSM 20231 [4], 0.62 µg/mL	0.669
S. aureus Newman [6], 0.039 µg/mL	0.829
S. aureus Newman [6], 0.078 µg/mL	0.786
S. aureus Newman [6], 0.156 µg/mL	0.729
S. aureus Newman [6], 0.312 µg/mL	0.462
S. aureus Newman [6], 0.625 µg/mL	0.0743
S. aureus Newman [6], 1.25 µg/mL	0.022
S. aureus Newman [6], 2.5 µg/mL	0.021
S. pneumoniae D39V [7], 0.0018 µg/mL	≥ 1
S. pneumoniae D39V [7], 0.0035 µg/mL	0.998
S. pneumoniae D39V [7], 0.007 µg/mL	0.83

O=C(O)c1cn(C2CC2)c2cc(N3CCNCC3)c(F)cc2c1=O [Ciprofloxacin]
Settings	MIC [µg/mL]
S. aureus DSM 20231 [1]	0.312 (≈ 0.942 µM)
S. aureus Newman [2]	0.156 (≈ 0.471 µM)
S. pneumoniae D39V [3]	1 (≈ 3.02 µM)

fitness
Settings	0.0098 µg/mL	0.0195 µg/mL	0.0375 µg/mL	0.039 µg/mL	0.075 µg/mL	0.078 µg/mL	0.15 µg/mL	0.156 µg/mL	0.312 µg/mL
B. subtilis 168 [5]	0.871	0.777	–	0.135	–	–	–	–	–
S. aureus DSM 20231 [4]	–	–	1	–	0.978	0.899	0.77	0.754	0.456
S. aureus Newman [6]	–	–	0.801	–	0.597	0.708	0.0387	0.267	0.0879

CC1(C)S[C@@H]2[C@H](NC(=O)Cc3ccccc3)C(=O)N2[C@H]1C(=O)O [Penicillin G]
Settings	MIC [µg/mL]
S. aureus DSM 20231 [1]	0.087 (≈ 0.26 µM)
S. aureus Newman [2]	0.087 (≈ 0.26 µM)
S. pneumoniae D39V [3]	0.016 (≈ 0.0478 µM)

fitness
Settings	0.0018 µg/mL	0.0035 µg/mL	0.007 µg/mL	0.014 µg/mL	0.0195 µg/mL	0.039 µg/mL	0.078 µg/mL
S. aureus Newman [6]	–	–	–	–	0.928	0.892	0.886
S. pneumoniae D39V [7]	0.932	0.944	0.817	0.425	–	–	–

COc1cccc2c1C(=O)c1c(O)c3c(c(O)c1C2=O)C[C@@](O)(C(=O)CO)C[C@@H]3O[C@H]1C[C@H](N)[C@H](O)[C@H](C)O1 [Doxorubicin] + CCN(CC)CCOC(=O)c1ccc(N)cc1 [Procaine]
Settings	Bliss interaction score
B. subtilis 168 [9]	0.095
S. aureus DSM 20231 [8]	-0.0642
S. aureus Newman [10]	-0.058
S. pneumoniae D39V [11]	0.07

fitness
Settings	first compound 0.25 µg/mL	first compound 0.5 µg/mL	first compound 0.625 µg/mL	first compound 1 µg/mL	first compound 1.25 µg/mL	first compound 2.5 µg/mL
B. subtilis 168 [5], partner 85.5 µg/mL	–	–	0.934	–	0.89	0.672
B. subtilis 168 [5], partner 171 µg/mL	–	–	0.961	–	0.894	0.654
B. subtilis 168 [5], partner 342 µg/mL	–	–	0.887	–	0.879	0.702
S. aureus DSM 20231 [4], partner 85.5 µg/mL	–	–	0.829	–	0.823	0.748
S. aureus DSM 20231 [4], partner 171 µg/mL	–	–	0.926	–	0.916	0.832
S. aureus DSM 20231 [4], partner 342 µg/mL	–	–	0.898	–	0.866	0.804
S. aureus Newman [6], partner 85.5 µg/mL	–	–	0.801	–	0.823	0.745
S. aureus Newman [6], partner 171 µg/mL	–	–	0.79	–	0.835	0.752
S. aureus Newman [6], partner 342 µg/mL	–	–	0.815	–	0.747	0.764
S. pneumoniae D39V [7], partner 85.5 µg/mL	0.988	≥ 1	–	0.917	–	–
S. pneumoniae D39V [7], partner 171 µg/mL	0.963	0.98	–	0.892	–	–
S. pneumoniae D39V [7], partner 342 µg/mL	0.97	0.996	–	0.855	–	–

COc1cccc2c1C(=O)c1c(O)c3c(c(O)c1C2=O)C[C@@](O)(C(=O)CO)C[C@@H]3O[C@H]1C[C@H](N)[C@H](O)[C@H](C)O1 [Doxorubicin] + Cc1onc(-c2ccccc2)c1C(=O)N[C@@H]1C(=O)N2[C@@H]1SC(C)(C)[C@@H]2C(=O)O [Oxacillin]
Settings	Bliss interaction score
B. subtilis 168 [9]	0.0758
S. aureus DSM 20231 [8]	-0.0629
S. aureus Newman [10]	0.0538
S. pneumoniae D39V [11]	0.0665

fitness
Settings	first compound 0.25 µg/mL	first compound 0.5 µg/mL	first compound 0.625 µg/mL	first compound 1 µg/mL	first compound 1.25 µg/mL	first compound 2.5 µg/mL
B. subtilis 168 [5], partner 0.002 µg/mL	–	–	0.995	–	0.895	0.749
B. subtilis 168 [5], partner 0.004 µg/mL	–	–	0.932	–	0.89	0.675
B. subtilis 168 [5], partner 0.008 µg/mL	–	–	0.881	–	0.871	0.512
S. aureus DSM 20231 [4], partner 0.0156 µg/mL	–	–	0.738	–	0.756	0.599
S. aureus DSM 20231 [4], partner 0.0312 µg/mL	–	–	0.604	–	0.585	0.532
S. aureus DSM 20231 [4], partner 0.0625 µg/mL	–	–	0.479	–	0.481	0.466
S. aureus Newman [6], partner 0.0156 µg/mL	–	–	0.705	–	0.671	0.671
S. aureus Newman [6], partner 0.0312 µg/mL	–	–	0.637	–	0.633	0.645
S. aureus Newman [6], partner 0.0625 µg/mL	–	–	0.582	–	0.583	0.569
S. pneumoniae D39V [7], partner 0.005 µg/mL	≥ 1	≥ 1	–	0.997	–	–
S. pneumoniae D39V [7], partner 0.01 µg/mL	0.941	0.973	–	0.924	–	–
S. pneumoniae D39V [7], partner 0.02 µg/mL	0.889	0.897	–	0.891	–	–
S. pneumoniae D39V [7], partner 0.04 µg/mL	0.252	0.337	–	0.323	–	–

fitness, B. subtilis 168 [5], one replicate
Settings	partner 0.0078 µg/mL	partner 0.0155 µg/mL	partner 0.031 µg/mL	partner 0.075 µg/mL	partner 0.15 µg/mL	partner 0.3 µg/mL
first compound 0.625 µg/mL	≥ 1	≥ 1	0.943	0.468	0.0267	0.0431
first compound 1.25 µg/mL	0.965	0.934	0.857	0.496	0.0281	0.0304
first compound 2.5 µg/mL	0.652	0.666	0.477	0.0449	0.0184	0.0211
